Format in all cases: functional
Test [1] concerns Penicillium chrysogenum. Briefly: Antifungal activity against Penicillium chrysogenum assessed as diameter of inhibition zone at 100 ug/well after 48 hrs by agar well diffusion method. Particulars: read-out: DIZ.
Test [2] concerns Pseudomonas aeruginosa. The test can be described thus: Antibacterial activity against Pseudomonas aeruginosa assessed as diameter of inhibition zone at 12.5 ug/well after 24 hrs by agar well diffusion method. Particulars: read-out: DIZ.
For test [3], the system named is Staphylococcus aureus. Briefly: Antibacterial activity against Staphylococcus aureus assessed as diameter of inhibition zone at 100 ug/well after 24 hrs by agar well diffusion method. Particulars: for zone of inhibition at 100 µg/disc: read-out: DIZ.
Test [4] has as its system Bacillus subtilis. Briefly: Antibacterial activity against Bacillus subtilis assessed as diameter of inhibition zone at 12.5 ug/well after 24 hrs by agar well diffusion method. As to conditions: for zone of inhibition at 12.5 µg/disc: read-out: DIZ.
For test [5], the system named is Staphylococcus aureus. Briefly: Antibacterial activity against Staphylococcus aureus assessed as diameter of inhibition zone at 25 ug/well after 24 hrs by agar well diffusion method. As to conditions: for zone of inhibition at 25 µg/disc: read-out: DIZ.
Test [6] relates to Penicillium chrysogenum. Briefly: Antifungal activity against Penicillium chrysogenum assessed as diameter of inhibition zone at 25 ug/well after 48 hrs by agar well diffusion method. Particulars: for zone of inhibition at 25 µg/disc: read-out: DIZ.
For test [7], the system named is Penicillium chrysogenum. Briefly: Antifungal activity against Penicillium chrysogenum assessed as diameter of inhibition zone at 12.5 ug/well after 48 hrs by agar well diffusion method. As to conditions: for zone of inhibition at 12.5 µg/disc: read-out: DIZ.
The subject of test [8] is Klebsiella pneumoniae. Briefly: Antibacterial activity against Klebsiella pneumoniae assessed as diameter of inhibition zone at 25 ug/well after 24 hrs by agar well diffusion method. As to conditions: read-out: DIZ.
The test system of test [9] is Aspergillus niger. The test can be described thus: Antifungal activity against Aspergillus niger assessed as diameter of inhibition zone at 25 ug/well after 48 hrs by agar well diffusion method. As to conditions: read-out: DIZ.
In test [10] the test system is Klebsiella pneumoniae. Briefly: Antibacterial activity against Klebsiella pneumoniae assessed as diameter of inhibition zone at 12.5 ug/well after 24 hrs by agar well diffusion method. As to conditions: for zone of inhibition at 12.5 µg/disc: read-out: DIZ.
Test [11] relates to Klebsiella pneumoniae. Briefly: Antibacterial activity against Klebsiella pneumoniae assessed as diameter of inhibition zone at 100 ug/well after 24 hrs by agar well diffusion method. Particulars: read-out: DIZ.
Test [12] has as its system Bacillus subtilis. The test can be described thus: Antibacterial activity against Bacillus subtilis assessed as diameter of inhibition zone at 50 ug/well after 24 hrs by agar well diffusion method. As to conditions: for zone of inhibition at 50 µg/disc: read-out: DIZ.
The test system of test [13] is Aspergillus niger. The test can be described thus: Antifungal activity against Aspergillus niger assessed as diameter of inhibition zone at 50 ug/well after 48 hrs by agar well diffusion method. Particulars: read-out: DIZ.
Test [14] deals with Pseudomonas aeruginosa. The test can be described thus: Antibacterial activity against Pseudomonas aeruginosa assessed as diameter of inhibition zone at 100 ug/well after 24 hrs by agar well diffusion method. Particulars: read-out: DIZ.
Test [15] relates to Staphylococcus aureus. The test can be described thus: Antibacterial activity against Staphylococcus aureus assessed as diameter of inhibition zone at 12.5 ug/well after 24 hrs by agar well diffusion method. As to conditions: for zone of inhibition at 12.5 µg/disc: read-out: DIZ.
Test [16] deals with Pseudomonas aeruginosa. The test can be described thus: Antibacterial activity against Pseudomonas aeruginosa assessed as diameter of inhibition zone at 50 ug/well after 24 hrs by agar well diffusion method. Particulars: read-out: DIZ.
For test [17], the system named is Bacillus subtilis. The test can be described thus: Antibacterial activity against Bacillus subtilis assessed as diameter of inhibition zone at 100 ug/well after 24 hrs by agar well diffusion method. As to conditions: read-out: DIZ.
For test [18], the system named is Aspergillus niger. Briefly: Antifungal activity against Aspergillus niger assessed as diameter of inhibition zone at 100 ug/well after 48 hrs by agar well diffusion method. Particulars: read-out: DIZ.
For test [19], the system named is Pseudomonas aeruginosa. The test can be described thus: Antibacterial activity against Pseudomonas aeruginosa assessed as diameter of inhibition zone at 25 ug/well after 24 hrs by agar well diffusion method. As to conditions: read-out: DIZ.
Test [20] deals with Penicillium chrysogenum. The test can be described thus: Antifungal activity against Penicillium chrysogenum assessed as diameter of inhibition zone at 50 ug/well after 48 hrs by agar well diffusion method. As to conditions: read-out: DIZ.
Test [21] has as its system Klebsiella pneumoniae. Briefly: Antibacterial activity against Klebsiella pneumoniae assessed as diameter of inhibition zone at 50 ug/well after 24 hrs by agar well diffusion method. As to conditions: read-out: DIZ.
The subject of test [22] is Staphylococcus aureus. The test can be described thus: Antibacterial activity against Staphylococcus aureus assessed as diameter of inhibition zone at 50 ug/well after 24 hrs by agar well diffusion method. As to conditions: for zone of inhibition at 50 µg/disc: read-out: DIZ.
The test system of test [23] is Aspergillus niger. The test can be described thus: Antifungal activity against Aspergillus niger assessed as diameter of inhibition zone at 12.5 ug/well after 48 hrs by agar well diffusion method. As to conditions: read-out: DIZ.
Test [24] deals with Bacillus subtilis. The test can be described thus: Antibacterial activity against Bacillus subtilis assessed as diameter of inhibition zone at 25 ug/well after 24 hrs by agar well diffusion method. As to conditions: for zone of inhibition at 25 µg/disc: read-out: DIZ.

Active and inactive are the calls of the source. The rule behind the calls is not given here.

The text below walks through data of ChEMBL document CHEMBL4251634, “Synthesis and antimicrobial activity of pyrimidinyl 1,3,4-oxadiazoles, 1,3,4-thiadiazoles and 1,2,4-triazoles” (2018).

On to `Cc1cc(SCc2nnc(-c3ccc([N+](=O)[O-])cc3)o2)nc(SCc2nnc(-c3ccc([N+](=O)[O-])cc3)o2)n1`, for which the zone of inhibition at 100 µg/disc was 19 mm in the test with Penicillium chrysogenum [1]; 10 mm with Staphylococcus aureus [3]; 21 mm in the test with Klebsiella pneumoniae [11]; 21 mm with Pseudomonas aeruginosa [14]; 15 mm in the test on Bacillus subtilis [17]; 27 mm with Aspergillus niger [18]. For the same compound, the zone of inhibition at 12.5 µg/disc with Pseudomonas aeruginosa [2] was 11 mm; in the test with Bacillus subtilis [4] it was 9 mm; in the test with Penicillium chrysogenum [7], 12 mm; in the test on Klebsiella pneumoniae [10] it was 15 mm; in the test on Aspergillus niger [23], 20 mm. For the same compound, the zone of inhibition at 25 µg/disc stood at 7 mm in the test on Staphylococcus aureus [5]; 14 mm with Penicillium chrysogenum [6]; 17 mm with Klebsiella pneumoniae [8]; 22 mm in the test on Aspergillus niger [9]; 14 mm with Pseudomonas aeruginosa [19]; 11 mm in the test with Bacillus subtilis [24]. For the same compound, the zone of inhibition at 50 µg/disc in the test with Bacillus subtilis [12] worked out at 13 mm; in the test with Aspergillus niger [13], 24 mm; with Pseudomonas aeruginosa [16] it was 16 mm; in the test on Penicillium chrysogenum [20] it was 16 mm; with Klebsiella pneumoniae [21], 19 mm; with Staphylococcus aureus [22], 8 mm. For the same compound, in the test with Staphylococcus aureus [15], the “diameter of the inhibition zone (DIZ)” value was “inactive”.
`Cc1cc(SCc2nnc(-c3ccccc3)o2)nc(SCc2nnc(-c3ccccc3)o2)n1`: the zone of inhibition at 100 µg/disc worked out at 13 mm with Penicillium chrysogenum [1]; 12 mm with Klebsiella pneumoniae [11]; 14 mm in the test with Pseudomonas aeruginosa [14]; 7 mm with Bacillus subtilis [17]; 21 mm with Aspergillus niger [18]. The figures for the zone of inhibition at 12.5 µg/disc in the test on Pseudomonas aeruginosa [2], with Penicillium chrysogenum [7] and in the test on Aspergillus niger [23] were 7 mm, 8 mm and 14 mm, respectively. Also, the “diameter of the inhibition zone (DIZ)” value in the test with Staphylococcus aureus [3], with Bacillus subtilis [4], with Staphylococcus aureus [5], in the test on Klebsiella pneumoniae [10], in the test with Bacillus subtilis [12] and with Staphylococcus aureus [15] was “inactive” in each case. Also, the “diameter of the inhibition zone (DIZ)” value with Staphylococcus aureus [22] and with Bacillus subtilis [24] was “inactive” each time. The zone of inhibition at 25 µg/disc in the test on Penicillium chrysogenum [6] is 10 mm; with Klebsiella pneumoniae [8], 7 mm; with Aspergillus niger [9], 16 mm; in the test on Pseudomonas aeruginosa [19], 9 mm. Besides, the zone of inhibition at 50 µg/disc in the test with Aspergillus niger [13] is 18 mm; in the test with Pseudomonas aeruginosa [16], 11 mm; in the test with Penicillium chrysogenum [20] it was 11 mm; with Klebsiella pneumoniae [21] it was 9 mm.
For the compound `Cc1cc(SCc2nnc(-c3ccccc3)s2)nc(SCc2nnc(-c3ccccc3)s2)n1`, the zone of inhibition at 100 µg/disc in the test with Penicillium chrysogenum [1] came to 14 mm; in the test with Staphylococcus aureus [3], 13 mm; with Klebsiella pneumoniae [11] it was 26 mm; with Pseudomonas aeruginosa [14] it was 24 mm; in the test on Bacillus subtilis [17], 18 mm; in the test with Aspergillus niger [18] it was 22 mm. Besides, the zone of inhibition at 12.5 µg/disc in the test with Pseudomonas aeruginosa [2] turned out to be 15 mm; in the test with Bacillus subtilis [4], 11 mm; in the test on Penicillium chrysogenum [7] it was 9 mm; with Klebsiella pneumoniae [10] it was 20 mm; in the test with Staphylococcus aureus [15], 10 mm; in the test on Aspergillus niger [23], 15 mm. Also, the zone of inhibition at 25 µg/disc is 11 mm with Staphylococcus aureus [5]; 10 mm in the test with Penicillium chrysogenum [6]; 21 mm in the test with Klebsiella pneumoniae [8]; 17 mm in the test on Aspergillus niger [9]; 19 mm with Pseudomonas aeruginosa [19]; 13 mm in the test on Bacillus subtilis [24]. Moreover, the zone of inhibition at 50 µg/disc was 15 mm in the test with Bacillus subtilis [12]; 19 mm in the test on Aspergillus niger [13]; 20 mm with Pseudomonas aeruginosa [16]; 12 mm in the test on Penicillium chrysogenum [20]; 23 mm in the test on Klebsiella pneumoniae [21]; 12 mm in the test on Staphylococcus aureus [22].
With `Cc1cc(SCc2nnc(-c3ccc(Br)cc3)n2N)nc(SCc2nnc(-c3ccc(Br)cc3)n2N)n1`, the zone of inhibition at 100 µg/disc was determined as 24 mm in the test with Penicillium chrysogenum [1]; 14 mm with Staphylococcus aureus [3]; 28 mm with Klebsiella pneumoniae [11]; 25 mm with Pseudomonas aeruginosa [14]; 20 mm with Bacillus subtilis [17]; 34 mm in the test on Aspergillus niger [18]. The zone of inhibition at 12.5 µg/disc turned out to be 16 mm in the test on Pseudomonas aeruginosa [2]; 15 mm in the test on Bacillus subtilis [4]; 17 mm in the test with Penicillium chrysogenum [7]; 21 mm in the test on Klebsiella pneumoniae [10]; 9 mm in the test on Staphylococcus aureus [15]; 27 mm with Aspergillus niger [23]. Further, the zone of inhibition at 25 µg/disc is 10 mm in the test with Staphylococcus aureus [5]; 19 mm in the test on Penicillium chrysogenum [6]; 23 mm with Klebsiella pneumoniae [8]; 29 mm with Aspergillus niger [9]; 20 mm with Pseudomonas aeruginosa [19]; 16 mm in the test with Bacillus subtilis [24]. In addition, the zone of inhibition at 50 µg/disc in the test with Bacillus subtilis [12] is 18 mm; with Aspergillus niger [13], 31 mm; in the test with Pseudomonas aeruginosa [16], 22 mm; in the test on Penicillium chrysogenum [20], 21 mm; in the test with Klebsiella pneumoniae [21], 25 mm; in the test with Staphylococcus aureus [22], 12 mm.
As to `Cc1ccc(-c2nnc(CSc3cc(C)nc(SCc4nnc(-c5ccc(C)cc5)n4N)n3)n2N)cc1`, the zone of inhibition at 100 µg/disc in the test on Penicillium chrysogenum [1] turned out to be 10 mm; in the test on Klebsiella pneumoniae [11] it was 18 mm; with Pseudomonas aeruginosa [14], 18 mm; in the test with Bacillus subtilis [17] it was 11 mm; in the test with Aspergillus niger [18] it was 16 mm. The zone of inhibition at 12.5 µg/disc came out at 9 mm in the test on Pseudomonas aeruginosa [2], 12 mm in the test on Klebsiella pneumoniae [10] and 10 mm in the test on Aspergillus niger [23]. Also, the “diameter of the inhibition zone (DIZ)” value in the test on Staphylococcus aureus [3], with Bacillus subtilis [4], with Staphylococcus aureus [5], with Penicillium chrysogenum [6], in the test with Penicillium chrysogenum [7] and with Staphylococcus aureus [15] was “inactive” throughout. In addition, the “diameter of the inhibition zone (DIZ)” value in the test with Staphylococcus aureus [22] is “inactive”. Also, the zone of inhibition at 25 µg/disc in the test with Klebsiella pneumoniae [8] is 13 mm; in the test with Aspergillus niger [9], 12 mm; in the test on Pseudomonas aeruginosa [19], 11 mm; in the test on Bacillus subtilis [24], 7 mm. The zone of inhibition at 50 µg/disc with Bacillus subtilis [12] turned out to be 9 mm; with Aspergillus niger [13], 14 mm; in the test with Pseudomonas aeruginosa [16] it was 14 mm; in the test on Penicillium chrysogenum [20], 8 mm; in the test with Klebsiella pneumoniae [21], 15 mm.
On to `Cc1cc(SCc2nnc(-c3ccc(Cl)cc3)o2)nc(SCc2nnc(-c3ccc(Cl)cc3)o2)n1`, for which the zone of inhibition at 100 µg/disc in the test on Penicillium chrysogenum [1] worked out at 17 mm; in the test with Klebsiella pneumoniae [11] it was 16 mm; in the test with Pseudomonas aeruginosa [14], 17 mm; in the test on Bacillus subtilis [17], 9 mm; in the test with Aspergillus niger [18] it was 25 mm. Further, the zone of inhibition at 12.5 µg/disc in the test on Pseudomonas aeruginosa [2] stood at 10 mm; in the test on Penicillium chrysogenum [7], 11 mm; in the test on Klebsiella pneumoniae [10] it was 10 mm; in the test on Aspergillus niger [23], 18 mm. The “diameter of the inhibition zone (DIZ)” value in the test with Staphylococcus aureus [3], in the test with Bacillus subtilis [4], in the test on Staphylococcus aureus [5], in the test on Staphylococcus aureus [15], with Staphylococcus aureus [22] and with Bacillus subtilis [24] was “inactive” in each case. Also, the zone of inhibition at 25 µg/disc in the test with Penicillium chrysogenum [6] was determined as 13 mm; in the test with Klebsiella pneumoniae [8], 11 mm; in the test on Aspergillus niger [9], 20 mm; in the test with Pseudomonas aeruginosa [19], 12 mm. The zone of inhibition at 50 µg/disc in the test with Bacillus subtilis [12] is 7 mm; in the test with Aspergillus niger [13], 22 mm; in the test on Pseudomonas aeruginosa [16], 14 mm; in the test with Penicillium chrysogenum [20], 15 mm; in the test with Klebsiella pneumoniae [21] it was 13 mm.
